Experimental data reported in publication PMC4094919, “Screening and hit evaluation of a chemical library against blood-stage Plasmodium falciparum” (Malaria Journal, 2014).
“Also recorded” adds a separate entry of the source. Read-outs that look alike come from different tables or passages of the source. Marks after values point to notes of the source that are not given here.

Experiments:
[1] = tested on: P. falciparum NF54 strain; assay: P. falciparum NF54 growth assay, 3H-hypoxanthine incorporation (hit validation); type: cell-based, Plasmodium falciparum; settings: for EC50: Plasmodium falciparum; for Comment (activity in words on retest): hit validation, NF54 confirmatory assay
Experimental: Synthesized compounds were tested in an alternative assay, in which ^3H-hypoxanthine incorporation was measured in the chloroquine-sensitive strain NF54 (Values were measured in duplicate, 12 points/EC50).
Cultivation of Plasmodium falciparum: Plasmodium falciparum strain NF54 was obtained from the Research and Reference Reagent Resource Center (MR4) (Manassas, VA, USA). The two strains were maintained in vitro by a modification of the method of Trager and Jensen. Cultures were maintained in A positive (A^+) human erythrocytes suspended at 5% hematocrit in complete medium. […] Parasite growth and morphology were observed daily using thin smears at 100X (oil immersion) magnification following staining with Giemsa stain.
Plasmodium falciparum growth assay: The protocol assesses the compound efficacy against the growth of P. falciparum in vitro.
All cultures used in the study are albumax II adopted. […]
Following the incubation period, the plates were harvested with a FilterMate cell harvester (Perkin Elmer) onto unifilter-96 GF/B plates, washed with distilled water to remove excess radiochemical and plates were kept for drying 37°C overnight or 60°C for 1 hr. Fifty µL of Microscint scintillation cocktail (Microscint-High Efficiency LSC-Cocktail; Perkin Elmer) added in the unifilter-96 GF/B plates and kept for 15-20 min. The plates were counted in a Top Count NXT microplate scintillation and luminescence counter (Perkin Elmer). The mean values for [^3H]-hypoxanthine incorporation in parasitized control and non-parasitized control erythrocytes were calculated.
Assay data were analysed using Graph pad prism ver.5 software. A variable sigmoid dose response curve is plotted keeping log concentrations at X-axis and % inhibition at Y-axis.

P. falciparum 3D7 strain = assay: P. falciparum 3D7 growth inhibition, DAPI imaging (HTS screen); type: cell-based
Experimental: The P. falciparum 3D7 strain was used for the primary screen.
For the screening of the chemical library, a validated high throughput screening (HTS) method was used as reported by Duffy and Avery. In brief, intra-erythrocyte P. falciparum 3D7 parasites incubated with the compounds for 72 hours were stained with 4′-6-diamidino-2-phenylindole (DAPI) and imaged using a high throughput confocal imaging system. To ascertain inhibition of parasite growth, images of fluorescent parasites were translated, using a mathematical algorithm, into a numerical output of classified spots (parasites) as determined by fluorescence size and intensity.
EC50 and CC50 values were calculated for compounds which presented an Emax plateau using GraphPad Prism.

[2] = P. falciparum NF54 strain, 3H-hypoxanthine incorporation, newly synthesized sample, read-out: EC50 (NF54)
[3] = negative logarithm of the molar EC50, NF54, read-out: pEC50 (NF54) (converted)
[4] = Plasmodium falciparum; P. falciparum 3D7 strain, DAPI imaging, HTS screen, library sample; read-out: EC50 (3D7)
[5] = Plasmodium falciparum; negative logarithm of the molar EC50, 3D7; read-out: pEC50 (3D7) (converted)
[6] = NF54, heading bounds of Figure 8: not reconfirming / reconfirming / newly synthesized compounds, read-out: EC50 (bound in Figure 8)
[7] = 3D7 / NF54, range over HTS (3D7) and retest after synthesis (NF54), read-out: EC50 range over the two assays

| EC50 [1, 2] [nM] | EC50 [1, 3] [nM] | EC50 (P. falciparum 3D7 strain; [4]) [nM] | EC50 (P. falciparum 3D7 strain; [5]) [nM] | EC50 [1, 6] [nM] | Structure (SMILES) | Comment (activity in words on retest) [1] | further results |
| --- | --- | --- | --- | --- | --- | --- | --- |
| > 10000 | > 10000 | – | – | – | CC(=O)N1c2ccccc2[C@@H](c2ccccc2)[C@@H]1C(=O)O (racemic) [Compound 4a, Rac (2R,3R)-1-acetyl-3-phenylindoline-2-carboxylic acid] | did not confirm activity; also recorded: Inactive | – |
| 763 | 794 | – | – | – | Cc1c(Cc2c(C)n(Cc3ccccc3C#N)c3ccccc23)c2ccccc2n1Cc1ccccc1C#N [Compound 2, 2,2'-((3,3'-methylenebis(2-methyl-1H-indole-3,1-diyl))bis(methylene))dibenzonitrile] | EC50 in the same range as initially described during the HTS | – |
| 3000 | 3160 | 222 | 200 | > 1000 | CC(C)(C)CC(=O)N(Cc1ccc(NC(=O)c2ccc(C#N)cc2)cc1)CC(C)(C)CN [Compound 3, N-(4-((N-(3-amino-2,2-dimethylpropyl)-3,3-dimethylbutanamido)methyl)phenyl)-4-cyanobenzamide] | Weakly active | – |
| – | – | 172 | 158 | > 1000 | CC(=O)N1c2ccccc2C(c2ccccc2)C1C(=O)O (centres unmarked) [Compound 4] | – | – |
| 3900 | 3980 | 870 | 794 | > 1000 | COc1ccc(NC(=O)c2cnn(-c3ccccc3)c2-c2ccccc2)c(OC)c1 [Compound 5, N-(2,4-dimethoxyphenyl)-1,5-diphenyl-1H-pyrazole-4-carboxamide] | Weakly active | EC50 ([1]; P. falciparum NF54, after synthesis, read-out: EC50 (NF54)): ~4000 nM |
| > 10000 | > 10000 | < 10 | < 10 | > 1000 | CC(=O)N1CCN(Cc2coc(Cc3ccccc3)n2)CC1 [Compound 6, 1-(4-((2-benzyloxazol-4-yl)methyl)piperazin-1-yl)ethanone] | Inactive | – |
| 450 | 501 | 648 | 631 | < 1000 | O=C(Nc1cc(=O)[nH]c2nc(-c3ccccc3)nn12)C1CCCCC1 [Compound 7, N-(5-oxo-2-phenyl-4,5-dihydro-[1,2,4]triazolo[1,5-a]pyrimidin-7-yl)cyclohexanecarboxamide] | Validated hit, CHEMBL587310^f) | EC50 [1, 7]: 450 to 648 nM |
| – | – | – | – | – | COc1ccc(-c2cnc3sc(NC4CCC(N)CC4)nn23)cn1 (centres unmarked) [Compound 8, N1-(5-(6-methoxypyridin-3-yl)imidazo[2,1-b][1,3,4]thiadiazol-2-yl)cyclohexane-1,4-diamine] | – | EC50 (P. falciparum 3D7 strain; Plasmodium falciparum, 3D7, read-out: EC50 (3D7)): 297 nM; EC50 (P. falciparum 3D7 strain; Plasmodium falciparum, 3D7, read-out: pEC50 (3D7) (converted)): 316 nM; EC50 ([1]; 3D7 / NF54, read-out: EC50 range over the two assays): 284 to 287 nM; EC50 ([1]; NF54, read-out: EC50 (NF54)): 284 nM; EC50 ([1]; NF54, read-out: EC50 (bound in Figure 8)): < 1000 nM; EC50 ([1]; NF54, read-out: pEC50 (NF54) (converted)): 316 nM |
| 309 | 316 | 393 | 398 | < 1000 | CCOc1ncccc1C(=O)Nc1cc(C(F)(F)F)ccc1Oc1cccc(OC)c1 [Compound 9, 2-ethoxy-N-(2-(3-methoxyphenoxy)-5-(trifluoromethyl)phenyl)nicotinamide] | Validated hit | EC50 [1, 7]: 309 to 393 nM |
| 60 | 63.1 | 181 | 200 | < 1000 | O=C(c1cccc(-c2noc(CN(CCN3CCCCC3)C(=O)c3ccccc3)n2)c1)N1CCCNCC1 [Compound 10, N-((3-(3-(1,4-diazepane-1-carbonyl)phenyl)-1,2,4-oxadiazol-5-yl)methyl)-N-(2-(piperidin-1-yl)ethyl)benzamide] | Validated hit | EC50 [1, 7]: 60 to 181 nM |
| 518 | 501 | 433 | 398 | < 1000 | O=C(NCC(c1ccsc1)N1CCCCCC1)c1ccc(C(F)(F)F)cc1 (centres unmarked) [Compound 11, N-(2-(azepan-1-yl)-2-(thiophen-3-yl)ethyl)-4-(trifluoromethyl)benzamide] | Validated hit | – |
| 60 | 63.1 | 928 | 1000 | < 1000 | COc1ccc2c(c1)C1(Nc3ccccc3-c3nc4ccccc4n31)C(=O)N2 (centres unmarked) [Compound 12, 5'-methoxy-5H-spiro[benzo[4,5]imidazo[1,2-c]quinazoline-6,3'-indolin]-2'-one] | Validated hit, CHEMBL1545915^f) | – |
| 102 | 100 | 194 | 200 | < 1000 | Cc1csc(Sc2ncnc3sccc23)n1 [Compound 13, 4-((4-methylthiazol-2-yl)thio)thieno[2,3-d]pyrimidine] | Validated hit | EC50 [1, 7]: 102 to 194 nM |
| – | – | 350 | 316 | – | O=C(O)C1Cc2c([nH]c3ccccc23)C(c2ccc(Cl)cc2Cl)N1 (centres unmarked) [Compound 14] | – | – |
| > 10000 | > 10000 | – | – | < 1000 | O=C(O)[C@@H]1Cc2c([nH]c3ccccc23)[C@H](c2ccc(Cl)cc2Cl)N1 [Compound 14a, (1S,3S)-1-(2,4-dichlorophenyl)-2,3,4,9-tetrahydro-1H-pyrido[3,4-b]indole-3-carboxylic acid] | Inactive | – |
| 167 | 158 | – | – | < 1000 | O=C(O)[C@@H]1Cc2c([nH]c3ccccc23)[C@@H](c2ccc(Cl)cc2Cl)N1 [Compound 14b, (1R,3S)-1-(2,4-dichlorophenyl)-2,3,4,9-tetrahydro-1H-pyrido[3,4-b]indole-3-carboxylic acid] | Hit | – |
| 4200 | 3980 | – | – | < 1000 | O=C(O)[C@H]1Cc2c([nH]c3ccccc23)[C@@H](c2ccc(Cl)cc2Cl)N1 [Compound 14c] | weak activity; also recorded: Weakly active | – |
| > 10000 | > 10000 | – | – | < 1000 | O=C(O)[C@H]1Cc2c([nH]c3ccccc23)[C@H](c2ccc(Cl)cc2Cl)N1 [Compound 14d] | Inactive | – |
| – | – | 678 | – | – | Cc1ccc(S(=O)(=O)N2CC(C)N(Cc3ccc(C(=O)NC4CC4)cc3)CC2C)cc1 (centres unmarked) [Compound 15, N-cyclopropyl-4-((2,5-dimethyl-4-tosylpiperazin-1-yl)methyl)benzamide] | – | – |
| 44 | 39.8 | – | – | < 1000 | Cc1ccc(S(=O)(=O)N2C[C@H](C)N(Cc3ccc(C(=O)NC4CC4)cc3)C[C@@H]2C)cc1 [Compound 15a] | Hit | Difference in activity between the two enantiomers ([1]; 15a versus 15b, NF54 EC50): more than 15 fold |
| 679 | 631 | – | – | < 1000 | Cc1ccc(S(=O)(=O)N2C[C@@H](C)N(Cc3ccc(C(=O)NC4CC4)cc3)C[C@H]2C)cc1 [Compound 15b] | Hit | – |
| 535 | 501 | – | – | < 1000 | Cc1ccc(S(=O)(=O)N2CCN(Cc3ccc(C(=O)NC4CC4)cc3)CC2)cc1 [Compound 15c, N-cyclopropyl-4-((4-tosylpiperazin-1-yl)methyl)benzamide] | Hit | – |
| – | – | – | – | – | CC(C)=CCN1CCC2(CC1)CN(C(=O)Nc1cccc(C#N)c1)c1ccc(C)cc12 [Compound 16] | – | EC50 (P. falciparum 3D7 strain; Plasmodium falciparum, 3D7; read-out: EC50 (3D7)): 990 nM; EC50 (P. falciparum 3D7 strain; Plasmodium falciparum, 3D7; read-out: Potency at HTS (3D7)): < 1000 nM; EC50 (P. falciparum 3D7 strain; Plasmodium falciparum, 3D7; read-out: pEC50 (3D7) (converted)): 1000 nM |

| Structure (SMILES) | EC50 [1, 2] [nM] | EC50 [1, 3] [nM] | EC50 (P. falciparum 3D7 strain; [4]) [nM] | EC50 (P. falciparum 3D7 strain; [5]) [nM] | EC50 [1, 6] [nM] | Comment (activity in words on retest) [1] | further results |
| --- | --- | --- | --- | --- | --- | --- | --- |
| O=C(Nc1cccc(Cl)c1)N1CC2(CCN(Cc3ccccc3)CC2)c2ccccc21 [Compound 17, 1'-benzyl-N-(3-chlorophenyl)spiro[indoline-3,4'-piperidine]-1-carboxamide] | 309 | 316 | – | – | < 1000 | Hit | – |
